Experiments:
Format in all cases: cell-based
[1] = tested on: NCI-H446 (human small cell lung cancer) cell line; test: Cytotoxicity assay, SRB method, NCI-H446; conditions: for IC50: Homo sapiens, NCI-H446 (sensitive) cells, SRB method; for Inhibition rate (%): Table S13, NCI-H446, IC50 rescreen
Description: (§1) The cytotoxic activity against the K562 (human leukemia) cell line was evaluated by MTT method, and the cytotoxic activities against L-02 (normal human hepatocytes), ASPC-1 (human pancreatic cancer), MDA-MB-231 (human breast cancer), NCI-H446, and NCI-H446/EP (human small cell lung cancer) cell lines were determined by SRB method. The difference between the two human small-cell lung cancer cell lines is that NCI-H446 is a sensitive cell line while the NCI-H446/EP cell line is resistant to cisplatin, etoposide, SN38, and doxorubicin. As a positive control, doxorubicin was used. […]
(§2) The cytotoxic activity against the K562 (human leukemia) cell line was evaluated by MTT method, and the cytotoxic activities against L-02 (normal human hepato-cytes), ASPC-1 (human pancreatic cancer), MDA-MB-231 (human breast cancer), NCI-H446 and NCI-H446/EP (human small cell lung cancer) cell lines were determined by SRB method.
(§3) Doxorubicin was used as a positive control.
(§4) In the cytotoxic assay, preliminary screening for cytotoxicity of compounds was performed at the concentration of 30 μM, then the compounds with inhibition rate greater than 60 % were rescreened for the IC 50 values. The blank control, vehicle control, positive control (doxorubicin) and compounds at five different concentrations (30, 15, 3.75, 1.875 and 0.9375 μM) were tested three times and the average OD values were taken to calculated IC50 values.
(§5) Table S11. Cytotoxic activities of 1−5
(§6) Compound c Inhibition rate (%) […]
(§7) a Doxorubicin was used as positive control. […]
Table S13. Cytotoxicity against NCI-H446 cell line of 5 c (μM) OD value Inhibition rate (%) IC 50 ( μM)

[2] = tested on: K562 (human leukemia) cell line; test: Cytotoxicity assay, MTT method, K562; conditions: for IC50: Homo sapiens, K562 cell line, MTT method; for Inhibition rate (%): Table S12, K562, IC50 rescreen
Description: as §1, §2, §3, §4, §5, §6
a Doxorubicin was used as positive control.
Table S12. Cytotoxicity against K562 cell line of 5

[3] = tested on: ASPC-1 (human pancreatic cancer); test: Cytotoxicity assay, SRB method, ASPC-1; conditions: for IC50: Homo sapiens, ASPC1, ASPC-1 cells, SRB method
Description: as §1, §2, §3, §4, §5, §6, §7

[4] = tested on: NCI-H446/EP (human small cell lung cancer) cell line; test: Cytotoxicity assay, SRB method, NCI-H446/EP; conditions: for IC50: Homo sapiens, NCI-H446/EP cells (resistant to cisplatin, etoposide, SN38, doxorubicin), SRB method
Description: as §1, §2, §3, §4, §5, §6, §7

[5] = tested on: MDA-MB-231 (human breast cancer); test: Cytotoxicity assay, SRB method, MDA-MB-231; conditions: for IC50: Homo sapiens, MDA-MB-231 cells, SRB method
Description: as §1, §2, §3, §4, §5, §6, §7

[6] = tested on: L-02 (normal human hepatocytes); test: Cytotoxicity assay, SRB method, L-02; conditions: for IC50: Homo sapiens, L02, L-02 cells, SRB method
Description: as §1, §2, §3, §4, §5, §6, §7

[7] = tested on: NCI-H446 (human small cell lung cancer) cell line; test: Cytotoxicity assay, SRB method, NCI-H446; conditions: Table S13, NCI-H446, IC50 rescreen, c 7.5 μM
[8] = tested on: K562 (human leukemia) cell line; test: Cytotoxicity assay, MTT method, K562; conditions: Table S12, K562, IC50 rescreen, c 7.5 μM
[9] = Table S11, preliminary screening, c 30 μM
[10] = Table S11, positive control, c 1 μM

| Structure (SMILES) | IC50 [1] [µM] | Inhibition rate (%) NCI-H446 [1, 9] [%] | IC50 [2] [µM] | Inhibition rate (%) K562 [2, 9] [%] | IC50 [3] [µM] | Inhibition rate (%) ASPC-1 [3, 9] [%] | IC50 [4] [µM] | Inhibition rate (%) NCI-H446/EP [4, 9] [%] | IC50 [5] [µM] | Inhibition rate (%) MDA-MB-231 [5, 9] [%] | IC50 [6] [µM] | Inhibition rate (%) L-02 [6, 9] [%] | further results |
| --- | --- | --- | --- | --- | --- | --- | --- | --- | --- | --- | --- | --- | --- |
| CC1C(CCc2nc3ccccc3c(=O)[nH]2)C2CC(=O)C1(C)C(=O)C2(C)O (stereo not shown) [Compound 1, Chrysoquinazolinone A] | > 30 | 2.22 | > 30 | 35.08 | > 30 | 0.00 | > 30 | 9.68 | > 30 | -4.59 | > 30 | -0.42 |  |
| CC(c1nc2ccccc2c(=O)[nH]1)N1CCCC1=O (stereo not shown) [Compound 2, Chrysoquinazolinone B] | > 30 | 4.70 | > 30 | 33.57 | > 30 | 7.93 | > 30 | 12.47 | > 30 | 5.80 | > 30 | 0.28 |  |
| Cc1cc(O)c(CC[C@@H](C)C(=O)O)c2scnc12 [Compound 3a, Chrysobenzothiazole A] | > 30 | 1.04 | > 30 | 20.39 | > 30 | 18.16 | > 30 | 11.04 | > 30 | 0.40 | > 30 | 10.94 |  |
| Cc1cc(O)c(CC[C@H](C)C(=O)O)c2scnc12 [Compound 3b, Chrysobenzothiazole A] | > 30 | 9.14 | > 30 | 34.54 | > 30 | 2.09 | > 30 | 14.64 | > 30 | -4.16 | > 30 | -5.91 |  |
| Cc1c(O)cc(CCC(C)C(=O)O)c2ncsc12 (stereo not shown) [Compound 4, chrysobenzothiazole B] | > 30 | 6.55 | > 30 | 37.63 | > 30 | 8.56 | > 30 | 7.13 | > 30 | 6.32 | > 30 | -1.81 |  |
| C/C=C/C=C/C(=O)c1cc(C)c(C(=O)O)c(C)c1O [Compound 5, 4-Carboxylsorbicillin] | 16.9 | 86.08 | 15 | 97.15 | > 30 | 25.47 | > 30 | 54.99 | > 30 | -14.63 | > 30 | 13.89 | Inhibition rate (%) ([1]; c 0.9375 μM): -8.00%; Inhibition rate (%) ([1]; c 1.875 μM): 0.43%; Inhibition rate (%) ([1]; c 3.75 μM): 2.66%; Inhibition rate (%) ([1]; c 15 μM): 51.20%; Inhibition rate (%) ([1]; c 30 μM): 74.28%; Inhibition rate (%) ([2]; c 0.9375 μM): 8.60%; Inhibition rate (%) ([2]; c 1.875 μM): 7.71%; Inhibition rate (%) ([2]; c 3.75 μM): 13.35%; Inhibition rate (%) ([2]; c 15 μM): 47.36%; Inhibition rate (%) ([2]; c 30 μM): 77.22%; Inhibition rate (%) [7]: 14.10%; Inhibition rate (%) [8]: 20.85% |
| COc1cccc2c1C(=O)c1c(O)c3c(c(O)c1C2=O)C[C@@](O)(C(=O)CO)C[C@@H]3O[C@H]1C[C@H](N)[C@H](O)[C@H](C)O1 [Doxorubicin, reference compound] | < 1 |  | < 1 |  | > 1 |  | > 1 |  | < 1 |  | < 1 |  | Inhibition rate (%) NCI-H446 [1, 10]: 52.20%; Inhibition rate (%) K562 [2, 10]: 100.00%; Inhibition rate (%) ([2]; c 1 μM): 100.00%; Inhibition rate (%) ASPC-1 [3, 10]: 29.65%; Inhibition rate (%) NCI-H446/EP [4, 10]: 27.60%; Inhibition rate (%) MDA-MB-231 [5, 10]: 65.37%; Inhibition rate (%) L-02 [6, 10]: 87.67% |
